Data on 12 molecules can be found in US20230406838A1, “MUTANT SELECTIVE EGFR INHIBITORS AND METHODS OF USE THEREOF” (Dana-Farber Cancer Institute, Inc., priority 2020, published 2023).

Experiment [1] deals with EGFR L858R (Homo sapiens, UniProt P00533, L858R). Nature of the experiment: HTRF-based EGFR biochemical assay, L858R. The note with it: 100 μM ATP, enzyme 0.1 nM. As for the experimental part:
(§1) EGFR biochemical activity measurements were carried out using the homogeneous time-resolved fluorescence (HTRF) assay (Cisbio). Inhibitors and DMSO normalizations were first dispensed to empty black low-volume 384-well plates (Corning) with D300 digital liquid dispenser (HP). All reactions were carried out at room temperature and solutions were added to plates with a Multidrop Combi Reagent Dispenser (ThermoFisher). The reaction mixture (10 μL final volume) contained 1 μM tyrosine kinase peptide-biotin substrate and mutant EGFR in a reaction buffer (50 mM HEPES pH 7.0, 5 mM MgCl2, 1 mM MnCl2, 0.01% BSA, 2 mM TCEP, 0.1 mM NaVO4). […] Enzyme reaction solution (2× concentrations, 5 μL) was added to 384-well plates containing compounds and incubated for 30 mins. Enzyme reactions were initiated with the addition of 5 μL of ATP to a final concentration of 100 μM and reacted for 20 mins.
For orientation: Time-resolved FRET reads energy transfer from a long-lived donor to a nearby acceptor.

Experiment [2] has as its target EGFR L858R/T790M (Homo sapiens, UniProt P00533, L858R/T790M). The experiment is described as follows: HTRF-based EGFR biochemical assay, L858R/T790M. To be noted: 100 μM ATP, enzyme 0.02 nM. As for the experimental part:
as §1

EGFR L858R, sequence (P00533 25-1210 L858R): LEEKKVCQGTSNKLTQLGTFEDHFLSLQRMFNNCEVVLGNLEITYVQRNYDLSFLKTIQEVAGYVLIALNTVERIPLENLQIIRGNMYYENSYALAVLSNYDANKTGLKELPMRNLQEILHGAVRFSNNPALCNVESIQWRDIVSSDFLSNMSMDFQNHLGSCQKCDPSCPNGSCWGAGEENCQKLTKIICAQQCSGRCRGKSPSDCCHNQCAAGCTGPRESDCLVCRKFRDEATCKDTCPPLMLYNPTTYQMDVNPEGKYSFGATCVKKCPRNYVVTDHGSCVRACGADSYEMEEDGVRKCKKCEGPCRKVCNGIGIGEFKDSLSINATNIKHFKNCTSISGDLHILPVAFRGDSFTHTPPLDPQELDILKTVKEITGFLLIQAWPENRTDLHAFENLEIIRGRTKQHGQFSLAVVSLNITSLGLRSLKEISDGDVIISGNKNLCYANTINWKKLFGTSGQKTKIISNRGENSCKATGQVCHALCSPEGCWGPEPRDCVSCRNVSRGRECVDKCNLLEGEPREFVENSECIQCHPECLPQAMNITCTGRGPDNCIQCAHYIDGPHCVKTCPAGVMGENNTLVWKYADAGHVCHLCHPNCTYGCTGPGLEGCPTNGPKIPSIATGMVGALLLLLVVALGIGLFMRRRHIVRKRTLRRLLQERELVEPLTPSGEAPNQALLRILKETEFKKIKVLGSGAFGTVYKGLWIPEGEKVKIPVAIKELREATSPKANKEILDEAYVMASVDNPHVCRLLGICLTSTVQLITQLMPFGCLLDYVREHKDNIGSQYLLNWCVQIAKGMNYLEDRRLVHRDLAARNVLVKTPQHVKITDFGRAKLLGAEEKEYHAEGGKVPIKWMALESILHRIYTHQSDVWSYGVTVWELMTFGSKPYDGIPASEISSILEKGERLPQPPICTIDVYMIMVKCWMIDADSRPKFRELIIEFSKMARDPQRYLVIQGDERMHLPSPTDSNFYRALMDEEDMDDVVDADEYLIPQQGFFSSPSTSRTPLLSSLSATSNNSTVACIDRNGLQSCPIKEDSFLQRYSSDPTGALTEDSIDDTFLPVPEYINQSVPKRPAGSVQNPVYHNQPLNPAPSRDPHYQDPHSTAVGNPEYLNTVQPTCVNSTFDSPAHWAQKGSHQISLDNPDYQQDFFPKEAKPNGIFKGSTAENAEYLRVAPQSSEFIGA
EGFR L858R/T790M, sequence (P00533 25-1210 T790M/L858R): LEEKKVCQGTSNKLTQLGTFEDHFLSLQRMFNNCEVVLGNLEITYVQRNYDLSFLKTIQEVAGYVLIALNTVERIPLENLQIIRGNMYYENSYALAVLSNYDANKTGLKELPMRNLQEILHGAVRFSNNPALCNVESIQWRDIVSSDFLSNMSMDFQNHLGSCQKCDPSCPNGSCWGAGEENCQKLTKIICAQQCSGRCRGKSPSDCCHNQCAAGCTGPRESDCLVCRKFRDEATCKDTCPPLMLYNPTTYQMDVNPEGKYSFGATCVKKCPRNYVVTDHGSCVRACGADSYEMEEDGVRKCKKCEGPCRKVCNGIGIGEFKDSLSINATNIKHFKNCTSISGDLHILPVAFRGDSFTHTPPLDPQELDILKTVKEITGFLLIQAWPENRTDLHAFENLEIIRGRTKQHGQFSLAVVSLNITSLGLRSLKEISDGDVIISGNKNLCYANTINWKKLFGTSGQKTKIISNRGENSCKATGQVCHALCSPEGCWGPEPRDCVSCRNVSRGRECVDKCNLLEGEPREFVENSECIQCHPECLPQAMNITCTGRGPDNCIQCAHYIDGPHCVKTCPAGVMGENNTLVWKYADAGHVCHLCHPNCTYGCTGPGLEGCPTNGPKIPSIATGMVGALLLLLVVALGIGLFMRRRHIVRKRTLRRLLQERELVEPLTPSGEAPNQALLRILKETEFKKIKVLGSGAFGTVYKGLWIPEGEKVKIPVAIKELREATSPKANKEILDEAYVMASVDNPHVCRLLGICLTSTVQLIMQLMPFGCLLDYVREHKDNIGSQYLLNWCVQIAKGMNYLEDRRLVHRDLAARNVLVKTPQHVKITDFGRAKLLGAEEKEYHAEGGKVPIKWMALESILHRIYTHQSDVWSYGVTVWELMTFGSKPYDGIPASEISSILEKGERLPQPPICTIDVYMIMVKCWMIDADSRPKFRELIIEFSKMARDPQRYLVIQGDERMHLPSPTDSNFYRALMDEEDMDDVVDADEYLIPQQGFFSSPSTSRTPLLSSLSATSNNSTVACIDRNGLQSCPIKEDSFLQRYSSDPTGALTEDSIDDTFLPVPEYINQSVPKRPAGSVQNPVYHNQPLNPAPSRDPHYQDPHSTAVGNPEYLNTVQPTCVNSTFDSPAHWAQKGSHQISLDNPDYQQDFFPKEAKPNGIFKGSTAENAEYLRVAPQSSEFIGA

In general, IC50 refers to the midpoint of a concentration-inhibition curve. As to `COc1cccc(C(=O)Nc2ccccc2-c2nc(SC)[nH]c2-c2ccnc(NC(C)=O)c2)c1` [Compound 025, N-(2-(5-(2-acetamidopyridin-4-yl)-2-(methylthio)-1H-imidazol-4-yl)phenyl)-3-methoxybenzamide], the IC50 in experiment [1] and in experiment [2] was more than 100 µM each time.
On to `CSc1nc(-c2ccc(F)c(NC(=O)Cc3c(F)cccc3F)c2)c(-c2ccnc(NC(C)=O)c2)[nH]1` [Compound 052, N-(5-(5-(2-acetamidopyridin-4-yl)-2-(methylthio)-1H-Imidazol-4-yl)-2-fluorophenyl)-2-(2,6-difluorophenyl)acetamide], for which the IC50 is 0.969 µM in experiment [1] and 1.89 µM in experiment [2].
As for `CSc1nc(-c2ccccc2NC(=O)C2CCCC2)c(-c2ccnc(NC(C)=O)c2)[nH]1` [Compound 022, N-(2(5-(2-acetamidopyridin-4-yl)-2-(methylthio)-1H-imidazol-4-yl)phenyl)cyclopentane-carboxamide], the IC50 in experiment [1] and in experiment [2] was more than 100 µM each time.
Turning to `CSc1nc(-c2cccc(NC(=O)CCc3ccccc3)c2)c(-c2ccnc(NC(C)=O)c2)[nH]1` [Compound 037, N-(3-(5-(2-acetamidopyridin-4-yl)-2-(methylthio)-1H-imidazol-4-yl)phenyl)-3-phenylpropanamide], the IC50 was determined as 1.88 µM in experiment [1] and 7.86 µM in experiment [2].
For `CSc1nc(-c2cc(NC(=O)c3c(F)cccc3F)cs2)c(-c2ccnc(NC(C)=O)c2)[nH]1` [Compound 011, N-(5-(5-(2-acetamidopyridin-4-yl)-2-(methylthio)-1H-imidazol-4-yl)thiophen-3-yl)-2,6-difluorobenzamide], in that order: more than 100 µM and more than 100 µM.
The corresponding values for `CSc1nc(-c2cccc(NC(=O)Nc3ccc(Br)cc3)c2)c(-c2ccnc(NC(C)=O)c2)[nH]1` [Compound 015, N-(4-(4-(3-(3-(4-bromophenyl)ureido)phenyl)-2-(methylthio)-1H-imidazol-5-yl)pyridin-2-yl)acetamide] are 6.43 µM and 5.94 µM.
For `CSc1nc(-c2ccccc2NC(=O)CCc2ccccc2)c(-c2ccnc(NC(C)=O)c2)[nH]1` [Compound 033, N-(2(5-(2-acetamidopyridin-4-yl)-2-(methylthio)-1H-Imidazol-4-yl)phenyl)-3-phenylpropanamide], in that order: more than 100 µM and more than 100 µM.
As to `CSc1nc(-c2cccc(NC(=O)Nc3ccc(F)cc3)c2)c(-c2ccnc(NC(C)=O)c2)[nH]1` [Compound 017, N-(4-(4-(3-(3-(4-fluorophenyl)ureido)phenyl)-2-(methylthio)-1H-imidazol-5-yl)pyridin-2-yl)acetamide], the IC50 in experiment [1] turned out to be 4.13 µM; in experiment [2] it was 5.3 µM.
For `CSc1nc(-c2ccccc2NC(=O)c2cccc3[nH]ccc23)c(-c2ccnc(NC(C)=O)c2)[nH]1` [Compound 023, N-(2-(5-(2-acetamidopyridin-4-yl)-2-(methylthio)-1H-imidazol-4-yl)phenyl)-1H-indole-4-carboxamide], in that order: more than 100 µM and more than 100 µM.
In the case of `CSc1nc(-c2ccccc2NC(=O)c2ccco2)c(-c2ccnc(NC(C)=O)c2)[nH]1` [Compound 027, N-(2-(5-(2-acetamidopyridin-4-yl)-2-(methylthio)-1H-imidazol-4-yl)phenyl)furan-2-carboxamide], the IC50 in experiment [1] and in experiment [2] was more than 100 µM throughout.
On to `CSc1nc(-c2cccc(NC(=O)C3CCCC3)c2)c(-c2ccnc(NC(C)=O)c2)[nH]1` [Compound 001, N-(3-(5-(2-acetamidopyridin-4-yl)-2-(methylthio)-1H-imidazol-4-yl)phenyl)cyclopentane-carboxamide], for which the IC50 in experiment [1] is 4.2 µM; in experiment [2], 16.7 µM.
For `CSc1nc(-c2cccc(NC(=O)C3CC3)c2)c(-c2ccnc(NC(C)=O)c2)[nH]1` [Compound 003, N-(3-(5-(2-acetamidopyridin-4-yl)-2-(methylthio)-1H-imidazol-4-yl)phenyl)cyclopropane-carboxamide], in that order: 4.23 µM and 14.5 µM.
